Measurements from patent US20140004209A1, “AUTOPHAGY INDUCER AND INHIBITOR COMBINATION THERAPY FOR THE TREATMENT OF NEOPLASMS” (GENENTECH, INC., priority 2010, published 2014).
Entries after “also recorded” stand apart in the source; their conditions may differ. Where two headings read alike, the source gives them in different places.

Tests used:
PC3 cells [1] = test: Microarray analysis of autophagy gene expression in PC3 cells; assay type: cell-based, human; conditions: 1 or 5 μM for 6 or 24 hours, normalized to DMSO
Method: PC3 cells were induced to express shRNA to indicated Akt isoforms for 72 hours by Doxycycline, RNA was extracted from both Dox treated (Dox+) or untreated control (Dox−) cells. Microarray analysis was carried out using Affymetrix chips. Ratios of the expression levels of each autophagy gene from Dox+ and Dox− samples are shown. Data are mean values from 3 independent experiments.
RNA was extracted from the cells. Microarray analysis was carried out using Affymetrix chips. Expression levels of each autophagy gene are normalized to the DMSO controls. Data are mean values from 3 independent experiments.

PC3 cells [2] = test: Immunoblot of LAMP1, cathepsin D and p62 in PC3 cells; assay type: cell-based, human
Source text: Western blot analysis, immunofluorescence, 1HC and TUNEL assay: For Western blot analysis, total protein lysates were subjected to SDS-PAGE and transferred to nitrocellulose. Antibodies used were: anti-Akt1, anti-Akt2, anti-Akt3, anti-total-Akt, anti-p-Akt (Ser473), anti-p-Akt (Thr308), anti-p-S6 (Ser235/236), anti-PARP and anti-cleaved caspase-3 (Cell Signaling Technology); anti-p-PRAS40 (Invitrogen); anti-p27^Kip1 (Santa Cruz Biotechnology); anti-LC3 (Novus); anti-LAMP2 and anti-Cathepsin D (BD Biosciences); and anti-GAPDH (Advanced Immunochemical Inc.). […] Detection and quantification were performed using an Odyssey infrared scanner (LICOR) using the manufacturer's software. For immunofluorescence staining, cells were fixed in 3% paraformaldehyde and permeabilized with 0.01% digitonin in PBS, followed by a rabbit polyclonal anti-LC3 (Abgent) primary antibody detected with a cy3-conjugated anti-rabbit secondary antibody (Jackson Immunoresearch). For IHC, formalin-fixed, paraffin-embedded specimens were collected. 5-μm-thick paraffin-embedded sections were stained using an anti-Ki-67 (MIB-1, DakoCytomation) antibody with the Dako ARK kit (Dako Corporation). Tissues were counterstained with haematoxylin, dehydrated, and mounted. In all cases, antigen retrieval was performed with the Dako Target Retrieval Kit as per manufacturer's instructions. For TUNEL assay, formalin-fixed, paraffin-embedded sections were stained using an in situ cell death detection kit (POD; Roche Diagnostic) according to the manufacturer's instructions.
Because autophagy is a key function of the lysosomal compartment (Terman, A., B. Gustafsson, and U. T. Brunk, (2006), The lysosomal-mitochondrial axis theory of postmitotic aging and cell death. Chem Biol Interact. 163:29-37), we examined the lysosomal marker LAMPI and cathepsin D, the predominant lysosomal aspartic protease, by immunoblotting (FIG. 6, B and C). […] Cathepsin D is synthesized as a 43-kD preprocathepsin D that is cleaved cotranslationally and glycosylated to form a 46-kD procathepsin D, which is targeted to lysosomes yielding an intermediate that is further cleaved into a mature enzyme consisting of a 15-kD light chain and a 28-kD heavy chain.

PC3 cells [3] = test: PC3 cell viability and cell death (PI exclusion, annexin V, caspase-3/7); assay type: cell-based, human; conditions: 4 μM II-4, 10 μM CQ, 0.5% FBS, 10 d
Method: (§1) Cell viability and cell cycle analysis. Cell number and viability was measured using trypan blue exclusion assay using a Vi-Cell Analyzer (Beckman Coulter), or labeled with 1 μg/ml PI in PBS/1% BSA followed by cytofluorometric analysis with a fluorescence-activated cell sorter (FACS) (Becton Dickinson). FITC-conjugated Annexin V was used for the assessment of phosphatidylserine exposure by FACS analysis. Caspase activation was analyzed using a Caspase-Glo 3/7 Assay kit (Promega). For cell cycle analysis, cells were fixed with drop-wise addition of chilled 70% ethanol, washed with PBS and resuspended in staining solution containing 50 μg/ml PI and 60 units of RNAse A. DNA content was analyzed by flow cytometry using the FlowJo and ModFit software (Becton Dickinson).

PTEN−/− and PTEN+/+ MEFs = test: Viability of PTEN−/− and PTEN+/+ MEFs (PI exclusion); assay type: cell-based, mouse; conditions: 5 μM each, 1% FBS
Method: MEFs were treated with 5 μM each of II-4 and CQ under 1% FBS, and cell viability was determined at days 0, 2, and 3 by PI exclusion. Error bars represent SEM (n=3). (B) Mean tumor volumes of PC3 xenograft tumors treated daily with vehicle (Veh), Dox only, CQ only, or both Dox and CQ over a 28-d period. The vehicle and vehicle+CQ groups were followed for up to 18 d before terminated because of weight loss from the tumor burdens. Error bars represent SEM (n=10 tumors in each cohort). (C) Scatterplot of the tumor volumes in the Dox only and Dox+CQ groups on day 28 (P=0.05). Horizontal bars indicate mean tumor volumes. Numbers of tumors with complete remission (CR, dashed line) are indicated for each group. […]
as §1, with “FITC-conjugated Annexin V was used for the assessment of phosphatidylserine exposure by FACS analysis.” left out

O=c1[nH]c2ccccc2n1C1CCN(Cc2ccc(-c3nc4cc5nc[nH]c5cc4nc3-c3ccccc3)cc2)CC1 [II-4, 1-(1-(4-(7-phenyl-1H-imidazo[4,5-g]quinoxalin-6-yl)benzyl)piperidin-4-yl)-1H-benzo[d]imidazol-2 (3H)-one]
autophagy gene expression (PC3 cells [1]): induce autophagy gene expression
cathepsin D forms, II-4 and CQ (PC3 cells [2]): the precursor forms of cathepsin D accumulated to even higher levels than either alone, whereas the mature 28-kD chain decreased gradually
p62 level (PC3 cells [2]): reduced the level of p62
LAMP1 levels (PC3 cells [2]; agent alone): increase in LAMP1 levels
p62 level (PC3 cells [2]; listed as Akti): caused a reduction in p62 levels
cell viability, II-4 (Akti-1/2) in combination with CQ (PC3 cells [3]): CQ accelerated cell death in combination with II-4; also recorded: rapid drop in cell viability with complete cell death observed by day 10
cell viability, II-4 (Akti-1/2) in combination with CQ (PC3 cells [3]; listed as Akti-1/2): significantly accelerated death rate
sensitivity of PTEN−/− vs PTEN+/+ MEFs to combined II-4 and CQ (PTEN−/− and PTEN+/+ MEFs): significantly more sensitive
